Calls of active or inactive are those of the source. The rule behind the calls is not given here.
What was measured:
Staphylococcus aureus [1] = experiment: Antibacterial activity against methicillin-resistant Staphylococcus aureus infected in C57BL/6 mouse assessed as reversal of blood urea nitrogen level in serum at 25 mg/kg, ip administered for 12 hrs by absorbance based microplate reader; assay type: functional, organism-based
Escherichia coli = experiment: Antibacterial activity Escherichia coli infected in C57BL/6 mouse model assessed as increase in survival rate at 25 mg/kg, ip incubated for 12 hrs followed by bacterial infection and measured after 100 hrs by Kaplan Meier survival analysis; assay type: functional, organism-based; details: time 112.0 hrs
Mus musculus [2] = experiment: Effect on CYP1A1 protein expression in C57BL/6 mouse liver infected with methicillin-resistant Staphylococcus aureus at 25 mg/kg, ip administered for 12 hrs by Western blot analysis; assay type: functional, organism-based
[3] = Toxicity in male C57BL/6 mouse assessed as change in body weight at 1 to 100 mg/kg, ip measured after 7 days; assay type: organism-based; details: in vivo, 168 h, dose 1-100 mg/kg, time 7 day
[4] = Toxicity in male C57BL/6 mouse assessed as effect on aspartate aminotransferase (AST) level in serum up to 100 mg/kg, ip measured after 12 hrs; assay type: organism-based; details: in vivo
Staphylococcus aureus [5] = experiment: Antibacterial activity against methicillin-resistant Staphylococcus aureus infected in C57BL/6 mouse model assessed as reversal of alanine transaminase level in serum at 25 mg/kg, ip administered for 12 hrs by absorbance based microplate reader; assay type: functional, organism-based
Staphylococcus aureus [6] = experiment: Antibacterial activity against methicillin-resistant Staphylococcus aureus infected in C57BL/6 mouse model assessed as reversal of aspartate aminotransferase level in serum at 25 mg/kg, ip administered for 12 hrs by absorbance based microplate reader; assay type: functional, organism-based
Staphylococcus aureus [7] = experiment: Antibacterial activity against methicillin-resistant Staphylococcus aureus infected in C57BL/6 mouse model assessed as reversal of creatinine level in serum at 25 mg/kg, ip administered for 12 hrs by absorbance based microplate reader; assay type: functional, organism-based
[8] = Toxicity in male C57BL/6 mouse assessed as effect on blood urea nitrogen level in serum up to 100 mg/kg, ip measured after 12 hrs; assay type: organism-based; details: in vivo
Staphylococcus aureus [9] = experiment: Antibacterial activity against methicillin-resistant Staphylococcus aureus infected in C57BL/6 mouse model assessed as reduction in bacterial dissemination from PLF to kidney at 25 mg/kg, ip preadministered for 12 hrs followed by bacterial infection and measured after 24 hrs; assay type: functional, organism-based; details: time 36.0 hrs
Cytochrome P450 1A1 = target: T1, Cytochrome P450 1A1 (Homo sapiens, UniProt P04798); experiment: Inhibition of CYP1A1 in human Caco-2 cells assessed as relative activity by measuring fold change at 5.0 uM incubated for 12 hrs by EROD assay relative to control; assay type: cell-based; details: caco-2, 12 h
T1 sequence (P04798 whole entry): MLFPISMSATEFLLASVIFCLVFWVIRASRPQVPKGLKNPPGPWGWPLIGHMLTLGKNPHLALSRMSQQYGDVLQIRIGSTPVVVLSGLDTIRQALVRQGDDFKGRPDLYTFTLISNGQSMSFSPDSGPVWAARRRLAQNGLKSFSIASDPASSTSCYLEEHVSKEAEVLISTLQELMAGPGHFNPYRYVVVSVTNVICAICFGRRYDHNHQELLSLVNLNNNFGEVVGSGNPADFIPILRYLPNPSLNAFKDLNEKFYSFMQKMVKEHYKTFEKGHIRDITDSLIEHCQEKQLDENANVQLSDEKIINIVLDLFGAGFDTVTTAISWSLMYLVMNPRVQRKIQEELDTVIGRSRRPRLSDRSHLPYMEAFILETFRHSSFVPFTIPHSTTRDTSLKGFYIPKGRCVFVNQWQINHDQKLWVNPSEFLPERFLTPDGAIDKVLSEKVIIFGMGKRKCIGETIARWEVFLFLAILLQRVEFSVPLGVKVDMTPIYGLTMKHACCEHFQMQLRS

Staphylococcus aureus [10] = experiment: Antibacterial activity against methicillin-resistant Staphylococcus aureus infected in C57BL/6 mouse model assessed as reduction in bacterial load in peritoneal lavage fluid at 25 mg/kg, ip pretreated for 12 hrs followed by bacterial infection and measured after 24 hrs relative to control; assay type: functional; design: scale not given: the % may be the effect or the level left; details: time 36 hrs
THP-1 = experiment: Induction of phagocytosis in human THP-1-derived macrophages infected with hexidine iodide labelled methicillin-R Staphylococcus aureus at 5 uM preincubated for 12 hrs followed by bacterial infection and measured after 1 hrs by fluorescence based confocal microscopic analysis; assay type: functional, cell-based; details: time 13.0 hrs
Staphylococcus aureus [11] = experiment: Antibacterial activity methicillin-resistant Staphylococcus aureus infected in C57BL/6 mouse model assessed as increase in survival at 25 mg/kg, ip preadministered for 12 hrs followed by bacterial infection and measured after 60 hrs by Kaplan Meier survival analysis; assay type: functional, organism-based; details: time 72.0 hrs
RAW264.7 [12] = experiment: Induction of phagocytosis in mouse RAW264.7 cells assessed as upregulation of CD68 mRNA expression by qRT-PCR analysis; assay type: functional, cell-based
Mus musculus [13] = experiment: Effect on CYP1A1 protein expression in C57BL/6 mouse kidney infected with methicillin-resistant Staphylococcus aureus at 25 mg/kg, ip administered for 12 hrs by Western blot analysis; assay type: functional, organism-based
RAW264.7 [14] = experiment: Induction of phagocytosis in zymosan A stimulated mouse RAW264.7 cells assessed as upregulation of SR-A1 mRNA expression at 5.0 uM incubated for 12 hrs by qRT-PCR analysis; assay type: functional, cell-based
CYP1A1 = target: T2, CYP1A1 (Mus musculus, UniProt P00184); experiment: Inhibition of CYP1A1 in mouse RAW264.7 cells assessed as relative activity by measuring fold change at 5 uM incubated for 12 hrs by EROD assay relative to control; assay type: cell-based; details: read-out: FC
T2 sequence (P00184 whole entry): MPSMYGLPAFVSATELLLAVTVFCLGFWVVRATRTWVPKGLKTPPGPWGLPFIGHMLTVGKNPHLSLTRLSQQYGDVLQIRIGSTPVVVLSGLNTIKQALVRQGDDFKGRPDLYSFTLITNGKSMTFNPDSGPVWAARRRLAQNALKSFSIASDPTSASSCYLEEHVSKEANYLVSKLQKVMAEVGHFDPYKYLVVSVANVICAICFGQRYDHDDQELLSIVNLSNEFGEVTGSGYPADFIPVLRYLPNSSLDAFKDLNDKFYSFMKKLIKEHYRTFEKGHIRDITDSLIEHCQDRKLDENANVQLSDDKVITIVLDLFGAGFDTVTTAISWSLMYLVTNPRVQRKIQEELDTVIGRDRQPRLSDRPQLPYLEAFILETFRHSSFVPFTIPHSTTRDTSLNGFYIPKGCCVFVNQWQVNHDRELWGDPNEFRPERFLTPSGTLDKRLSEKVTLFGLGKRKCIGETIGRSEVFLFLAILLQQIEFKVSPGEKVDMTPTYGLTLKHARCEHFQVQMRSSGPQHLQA

Acinetobacter baumannii = experiment: Antibacterial activity against Acinetobacter baumannii infected in C57BL/6 mouse model assessed as reduction in bacterial load in peritoneal lavage fluid at 25 mg/kg, ip pretreated for 12 hrs followed by bacterial infection and measured after 24 hrs relative to control; assay type: functional; design: scale not given: the % may be the effect or the level left; details: time 36 hrs
RAW264.7 [15] = experiment: Induction of phagocytosis in zymosan A stimulated mouse RAW264.7 cells assessed as upregulation of CD68 mRNA expression at 5.0 uM incubated for 12 hrs by qRT-PCR analysis; assay type: functional, cell-based
Staphylococcus aureus [16] = experiment: Antibacterial activity against methicillin-resistant Staphylococcus aureus infected in CYP1A1 deficient mouse assessed as bacterial clearance in PLF at 25 mg/kg, ip pretreated for 12 hrs followed by bacterial infection for 24 hrs; assay type: functional, organism-based; details: time 36.0 hrs

Row | Structure (SMILES) | Activity (Staphylococcus aureus [1]) | Activity (Escherichia coli) | Activity (Mus musculus [2]) | Activity [3] | Activity [4] | Activity (Staphylococcus aureus [5]) | Activity (Staphylococcus aureus [6]) | Activity (Staphylococcus aureus [7]) | Activity [8] | Activity (Staphylococcus aureus [9]) | fold change (FC) (Cytochrome P450 1A1) | Activity (Staphylococcus aureus [10]) | Activity (THP-1) | Activity (Staphylococcus aureus [11]) | Activity (RAW264.7 [12]) | Activity (Mus musculus [13]) | Activity (RAW264.7 [14]) | fold induction at 12 h, 5 µM (CYP1A1) | Activity (Acinetobacter baumannii) | Activity (RAW264.7 [15]) | also measured
1 | Cn1cc(/C=C/C(=O)c2ccc3c(c2)n(C)c(=O)n3C)c2ccccc21 | Active | Active | inactive | Non-toxic | Non-toxic | Active | Active | Active | Non-toxic | Active | 0.09 | >70% | Active | Active | Active | inactive | Active | 0.25 | >70% | Active | Activity (Staphylococcus aureus [16]): inactive
2 | C#Cc1ccccc1/C=C/C(=O)c1ccc2c(c1)n(C)c(=O)n2C | Active | Active | inactive | Non-toxic | Non-toxic | Active | Active | Active | Non-toxic | Active | 0.01 | >70% | Active | Active | Active | inactive | Active | 0.03 | >70% | Active | Activity (Staphylococcus aureus [16]): inactive

Reference: ChEMBL document CHEMBL6178019, “Discovery of CYP1A1 Inhibitors for Host-Directed Therapy against Sepsis” (J Med Chem, 2025)
